Reference: article PMC8957877, “The Resistance of Cancer Cells to Palbociclib, a Cyclin-Dependent Kinase 4/6 Inhibitor, is Mediated by the ABCB1 Transporter” (Frontiers in Pharmacology, 2022)

Tests used:
ABCB1 transporter [1] = target: T1, ABCB1 transporter (Homo sapiens, UniProt P08183)
ABCB1 transporter [2] = target: T1, ABCB1 transporter; assay: biochemical

T1 sequence (P08183 whole entry): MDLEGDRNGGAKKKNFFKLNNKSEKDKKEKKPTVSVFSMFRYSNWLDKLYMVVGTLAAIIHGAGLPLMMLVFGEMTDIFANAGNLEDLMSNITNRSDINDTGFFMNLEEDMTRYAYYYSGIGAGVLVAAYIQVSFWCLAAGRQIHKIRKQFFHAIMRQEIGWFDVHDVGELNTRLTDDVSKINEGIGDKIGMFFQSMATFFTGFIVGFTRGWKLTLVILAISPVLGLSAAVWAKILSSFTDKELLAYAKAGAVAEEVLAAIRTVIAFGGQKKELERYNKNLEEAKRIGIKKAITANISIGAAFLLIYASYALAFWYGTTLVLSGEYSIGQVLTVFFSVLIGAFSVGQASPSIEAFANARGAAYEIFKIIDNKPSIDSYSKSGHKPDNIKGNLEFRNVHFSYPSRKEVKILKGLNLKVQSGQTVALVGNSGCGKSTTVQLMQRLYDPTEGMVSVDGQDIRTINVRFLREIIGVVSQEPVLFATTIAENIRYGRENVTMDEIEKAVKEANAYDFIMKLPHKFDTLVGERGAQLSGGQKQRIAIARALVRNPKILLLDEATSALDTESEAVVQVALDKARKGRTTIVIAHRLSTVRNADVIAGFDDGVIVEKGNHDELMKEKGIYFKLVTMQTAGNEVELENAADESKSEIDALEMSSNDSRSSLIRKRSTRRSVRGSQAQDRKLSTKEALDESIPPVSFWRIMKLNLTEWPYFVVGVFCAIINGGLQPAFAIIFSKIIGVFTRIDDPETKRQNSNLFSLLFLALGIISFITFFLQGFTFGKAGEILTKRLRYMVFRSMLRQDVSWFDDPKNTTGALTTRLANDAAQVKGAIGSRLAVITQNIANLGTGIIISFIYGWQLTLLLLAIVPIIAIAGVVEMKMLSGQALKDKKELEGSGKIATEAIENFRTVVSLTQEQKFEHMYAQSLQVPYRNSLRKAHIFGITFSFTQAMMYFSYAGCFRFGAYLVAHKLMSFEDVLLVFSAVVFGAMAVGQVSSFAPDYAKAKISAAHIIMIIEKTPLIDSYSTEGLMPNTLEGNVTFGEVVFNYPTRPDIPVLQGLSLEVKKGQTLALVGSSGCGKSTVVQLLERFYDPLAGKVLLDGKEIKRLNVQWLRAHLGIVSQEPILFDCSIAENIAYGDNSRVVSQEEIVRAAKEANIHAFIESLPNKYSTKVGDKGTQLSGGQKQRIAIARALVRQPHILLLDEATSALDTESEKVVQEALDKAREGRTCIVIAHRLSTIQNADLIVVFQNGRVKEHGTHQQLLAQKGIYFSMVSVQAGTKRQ

Row | SMILES | radiolabelled substrate accumulation/efflux in ABCB1-overexpressing KB-C2 vs par (ABCB1 transporter [1]) | EC50 (ABCB1 transporter [2])
1 | CC(=O)O[C@H]1C(=O)[C@@]2(C)[C@H]([C@H](OC(=O)c3ccccc3)[C@]3(O)C[C@H](OC(=O)[C@H](O)[C@@H](NC(=O)c4ccccc4)c4ccccc4)C(C)=C1C3(C)C)[C@]1(OC(C)=O)CO[C@@H]1C[C@@H]2O [[^3H]-paclitaxel] | significantly greater than that of KB-C2 drug-resistant cancer cell line, due to an increase in the extrusion of [^3H]-paclitaxel | 
2 | CC(=O)c1c(C)c2cnc(Nc3ccc(N4CCNCC4)cn3)nc2n(C2CCCC2)c1=O [palbociclib] |  | 4.73 µM
